Data taken from patent US10232020B2, “Incretin-insulin conjugates” (priority 2014, dated 2019).
Non-standard residues stand in square brackets, D forms with d. No end group written: not given here. Aib = CC(C)(N)C(=O)O

Assays:
[1] = Dose titration on food intake and blood glucose (FIGS. 20-25); assay type: in vivo
[2] = test system: GPL-1 receptor knock out mice; assay: Glucose tolerance test and food intake in GLP-1 receptor knock out mice; assay type: in vivo; details: GLP-1 knock out mice; 3 nmol/kg; FIG. 28
Source text: FIG. 26 is a graph of a glucose tolerance test conducted on wild type mice (solid lines) and on GPL-1 receptor knock out mice (dashed lines).

[3] = target: T1, insulin receptor (IR-B) (Homo sapiens, UniProt P06213); assay: In vitro activity at insulin B receptor (IR-B); assay type: cell-based; details: FIG. 1B
T1 construct: expressed in transfected cells
Method: Color development was stopped 5 min later by adding 0.05 ml 1 N HCl. Absorbance at 450 nm was measured on Titertek Multiscan MCC340 (ThermoFisher, Pittsburgh, Pa.). […] Structures associated with the abbreviated lipidated groups designated in Table 4 are as follows: […]

[4] = target: insulin subtype A receptor (Homo sapiens, UniProt P06213); assay: In vitro activity at insulin subtype A receptor; assay type: cell-based; details: FIG. 1A
[5] = test system: normal mice; assay: Blood glucose after single administration to normal mice; assay type: in vivo; details: 50 nmoles/kg, FIG. 8
Method: Six- to eight-week-old male C57BL/6 mice were maintained at 23° C., constant humidity, and a 12-h light-dark cycle. The acute in vivo effects of select peptides were evaluated by subcutaneously injecting peptides solubilized in physiologically buffered saline or a vehicle control to normal or diabetic mice. Blood glucose was measured at various time points through the course of a 24 hr period following administration of the peptides. Each group of mice contained 8 animals per group. The average body weight was ˜25 g. Mice were made diabetic by administration of streptozotocin.

CIU-093: XEGTFTSDUSIYLDKQAAXEFVNWLLAGGPSSGAPPPS (SEQ ID NO: 1996); C(S-S)—CH2CH2CH2-B^1 Insulin
food intake ([1]; FIG. 22): does not suppress food intake | blood glucose ([1]; FIG. 25): a much higher dosage is required to get the same glucose lowering | food intake [2]: no reduction in food intake

GLP-DP8: GLP-1/insulin fusion, SEQ ID NO: 700; GLP-1 agonist peptide fused to the N-terminus of a single chain insulin analog (HAEGTFTSDVSSYLEEQAAREFIAWLVRGRG; GLP-1 analog)
potency at the insulin B receptor [3]: about 9.9 nanomoles | potency at the A receptor [4]: about 2.07 nanomoles

IUB-48: GLP-1 agonist, HXEGTFTSDVSSYLEEQAAKEFIAWLVKGGPSSGAPPPS (SEQ ID NO: 1932) (H[Aib]EGTFTSDVSSYLEEQAAKEFIAWLVKGGPSSGAPPPS)
blood glucose levels [5]: about 60 mg/dL
